Some results are limits rather than exact numbers.

In general, IC50 refers to the concentration at which inhibition is half-maximal.

Format in all cases: cell-based
The target in assay [1] is T1, GLUT1 (Homo sapiens, UniProt P11166).
T1 construct: host or cells: DLD-1 (DLD1) cells
T1 sequence (P11166 1-492): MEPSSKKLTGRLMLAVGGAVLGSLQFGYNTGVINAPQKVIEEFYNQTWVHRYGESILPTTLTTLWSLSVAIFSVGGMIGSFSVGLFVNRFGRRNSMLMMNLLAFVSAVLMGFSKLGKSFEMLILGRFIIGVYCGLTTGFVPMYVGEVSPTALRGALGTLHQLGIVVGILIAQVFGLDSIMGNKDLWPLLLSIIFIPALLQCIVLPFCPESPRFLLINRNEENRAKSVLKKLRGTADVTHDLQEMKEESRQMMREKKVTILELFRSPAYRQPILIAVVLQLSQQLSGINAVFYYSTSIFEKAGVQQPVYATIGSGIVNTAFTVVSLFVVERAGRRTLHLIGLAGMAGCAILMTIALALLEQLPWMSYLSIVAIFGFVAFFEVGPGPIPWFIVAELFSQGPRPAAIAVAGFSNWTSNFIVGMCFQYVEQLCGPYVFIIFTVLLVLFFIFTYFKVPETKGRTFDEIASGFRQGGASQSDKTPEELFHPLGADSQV
As to the kind of experiment: GLUT1 transporter activity assay (2-DG uptake) in DLD1 cells. To be noted: DLD1 cell line; read-out: GLUT1 inhibitory activity (IC50). The source says:
(§1) GLUT 1, 2, 3 and 4 Transporter Activity Assays
(§2) Assays were based on the specificity assays reported by Kapoor et al., Proceedings of the National Academy of Sciences 2016, 113 (17) 4711-4716. For GLUT1, GLUT2, GLUT3 and GLUT4 specificity testing DLD1, CHO-hGLUT2, DLD-1-GLUT1−/− and CHO-hGLUT4 cell lines were used.
(§3) Assay protocols for 2-deoxy-Glucose (2-DG) Uptake Assay with DLD1 or DLD1-Glut1(−/−) cells or 7,000 CHOK1-SLC2A4 cells lines:
(§4) 14,000 DLD1 or DLD1-Glut1(−/−) cells or 7,000 CHOK1-SLC2A4 cells were seeded in black, clear bottom 384-well plates in glucose- and phenolred-free RPMI1640 medium supplemented with 1% FCS and 2 mM L-glutamine and allowed to attach overnight. Next day, cells were washed and incubated with compounds or DMSO and 1 mM 2-DG in glucose- and phenolred-free RPMI1640 medium for 30 min. Cells were then washed and lysed in 0.06 M HCl and 1% CHAPS for 15 min at 65° C. The amount of 2-DG in the lysate was determined by means of enzyme-coupled assay. For this 16 U/mL glucose-6-phosphate dehydrogenase, 0.2 U/mL diaphorase, 0.1 mM NADP^+ and 10 μM resazurin were added to the lysates. Resorufin fluorescence was determined as a measure of 2-DG uptake at ex/em 535/590 nm with a Victor Multilabel plate reader (Perkin Elmer). Blank values were subtracted from all readings and values were normalized to the DMSO control.

Assay [2] has as its target T2, GLUT3 (Homo sapiens, UniProt P11169).
T2 construct: host or cells: DLD-1-GLUT1(-/-) cells
T2 sequence (P11169 1-496): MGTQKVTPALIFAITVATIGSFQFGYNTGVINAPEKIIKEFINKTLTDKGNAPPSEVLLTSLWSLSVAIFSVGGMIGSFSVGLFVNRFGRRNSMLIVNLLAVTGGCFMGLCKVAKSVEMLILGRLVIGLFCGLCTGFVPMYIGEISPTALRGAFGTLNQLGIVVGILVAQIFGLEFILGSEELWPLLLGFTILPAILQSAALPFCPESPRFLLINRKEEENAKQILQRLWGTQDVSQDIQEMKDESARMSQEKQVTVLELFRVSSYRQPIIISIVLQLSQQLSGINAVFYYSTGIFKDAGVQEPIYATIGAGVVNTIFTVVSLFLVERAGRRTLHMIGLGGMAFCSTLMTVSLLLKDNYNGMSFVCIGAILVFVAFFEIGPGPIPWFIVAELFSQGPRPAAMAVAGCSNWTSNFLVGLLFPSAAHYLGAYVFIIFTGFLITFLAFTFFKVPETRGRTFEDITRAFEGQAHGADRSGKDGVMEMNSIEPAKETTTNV
As to the kind of experiment: GLUT3 transporter activity assay (2-DG uptake) in DLD-1-GLUT1-/- cells. As to conditions: DLD-1-GLUT1-/- cell line; read-out: GLUT3 inhibitory activity (IC50).
Description: as §1, §2, §3, §4

In assay [3] the target is T3, GLUT4 (Homo sapiens, UniProt P14672).
T3 sequence (P14672 1-509): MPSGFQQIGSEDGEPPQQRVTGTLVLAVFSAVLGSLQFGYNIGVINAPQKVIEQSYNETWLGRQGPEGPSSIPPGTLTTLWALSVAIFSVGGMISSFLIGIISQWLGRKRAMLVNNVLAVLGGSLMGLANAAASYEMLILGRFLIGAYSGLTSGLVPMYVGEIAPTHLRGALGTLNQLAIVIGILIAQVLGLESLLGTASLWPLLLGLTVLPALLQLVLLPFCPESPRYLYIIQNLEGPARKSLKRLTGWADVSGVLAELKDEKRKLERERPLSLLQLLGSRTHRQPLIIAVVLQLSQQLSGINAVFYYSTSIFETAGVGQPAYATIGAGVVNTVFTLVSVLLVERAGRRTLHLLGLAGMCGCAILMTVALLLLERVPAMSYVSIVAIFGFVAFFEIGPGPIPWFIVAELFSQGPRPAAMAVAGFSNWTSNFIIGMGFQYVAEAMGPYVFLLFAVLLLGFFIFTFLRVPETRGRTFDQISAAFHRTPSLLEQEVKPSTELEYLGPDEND
As to the kind of experiment: GLUT4 transporter activity assay (2-DG uptake) in CHO-hGLUT4 cells. To be noted: CHO-hGLUT4 cell line; read-out: GLUT4 inhibitory activity (IC50). As for the experimental part: CHOK1-SLC2A4 cells were generated by transfection of CHOK1 cells with pCMV6-Entry-GLUT4 (Origene #SC125240) using Lipofectamin2000 according to the supplier's instructions. Briefly, 1.5E5 cells/well CHOK1 cells were seeded in 6-well cell culture plates. After overnight incubation, DNA-lipid complexes (2 μg plasmid DNA, DNA:lipid ratio 1:10) were prepared in OptiMEM and then added to the cells. After 5 days incubation, 800 μg G418 was added to the culture medium to generate a stable polyclone. For monoclone selection, single cells were re-plated in 96-well plates, expanded and selected by transgene overexpression and functional performance.
as §1, §2, §3, §4

Assay [4] has as its system HCT116 cells. The experiment in a line: 2-Deoxy-Glucose (2-DG) uptake assay in HCT116 cells. As to conditions: Homo sapiens, HCT-116, 0.5 h, 1 mM 2-DG, 30 min, read-out: IC50 determined for the inhibition of 2-DG uptake in HCT116 cells. As for the experimental part:
The 2-DG uptake assay was carried out as described by Yamamoto N. et al. with slight modifications ([…]). Briefly, 40,000 HCT116 or CHO cells were seeded in black, clear bottom 96-well plates and allowed to attach overnight. Cells were incubated with compounds or DMSO and 1 mM 2-DG in glucose-free KRB buffer (20 mM HEPES, 5 mM KH2PO4, 1 mM MgSO4, 1 mM CaCl2), 136 mM NaCl, 0.1% BSA, pH 7.4) for 30 min. In the case of GLUT-4 transfected cells, Insulin (100 μg/mL) was added to the buffer. Cells were then washed and lysed in 0.06 M HCl and 1% CHAPS for 15 min at 65° C. while shaking. The amount of 2-DG in the lysate was determined by means of enzyme-coupled assay. For this 6.4 U/mL glucose-6-phosphate dehydrogenase, 0.2 U/mL diaphorase, 0.1 mM NADP^+ and 0.025 mg/mL resazurin were added to the lysates. Resorufin fluorescence was determined as a measure of 2-DG uptake at ex/em 535/590 nm with a Tecan Infinite M200 plate reader (Tecan). Blank values were subtracted from all readings and values were normalized to the DMSO control.

Assay [5] addresses T4, GLUT2 (Homo sapiens, UniProt P11168).
T4 sequence (P11168 1-524): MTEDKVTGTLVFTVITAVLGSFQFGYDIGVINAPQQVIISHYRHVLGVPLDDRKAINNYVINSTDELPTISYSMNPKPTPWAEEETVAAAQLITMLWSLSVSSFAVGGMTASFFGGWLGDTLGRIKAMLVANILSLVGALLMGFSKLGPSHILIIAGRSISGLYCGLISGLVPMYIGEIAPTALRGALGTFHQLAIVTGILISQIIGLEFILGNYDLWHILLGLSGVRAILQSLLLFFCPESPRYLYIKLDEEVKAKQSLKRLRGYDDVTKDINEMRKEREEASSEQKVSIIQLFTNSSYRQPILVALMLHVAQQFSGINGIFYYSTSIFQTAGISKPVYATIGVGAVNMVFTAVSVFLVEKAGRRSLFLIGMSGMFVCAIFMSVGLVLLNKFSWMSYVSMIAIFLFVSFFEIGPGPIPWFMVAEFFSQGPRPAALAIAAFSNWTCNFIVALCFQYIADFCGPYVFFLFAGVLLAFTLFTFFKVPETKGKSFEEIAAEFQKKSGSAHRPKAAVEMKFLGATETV
The experiment in a line: GLUT2 transporter activity assay in CHO-hGLUT2 cells (indirect, intracellular ATP levels). To be noted: CHO-hGLUT2 cell line; read-out: GLUT2 inhibitory activity (IC50).
Description: as §1, §2
Example 8-3: Indirect Measurement of GLUT2 (SLC2A2) Activity by Quantification of Intracellular ATP Levels
A combination of small-molecule inhibitors of mitochondrial electron transport chain and glucose catabolism synergistically suppress ATP production and impair cellular viability (Ulanovskaya et al., 2008, 2011; Liu, et al. 2001). We therefore used CHOK1 cells overexpressing SLC2A2 (CHOK1-SLC2A2) in combination with an oxidative phosphorylation inhibitor (Rotenon) to identify GLUT2 inhibitors. CHOK1-SLC2A2 cells were purchased from creative biogene (catNo: CSC-SC014484) and maintained in RPMI1640 supplemented with 10% FBS and 2 mM L-Glutamine. For the Glut2-ATP-Assay, 7,500 cells were seeded in black, clear bottom 384-well plates directly in glucose- and phenolred-free RPMI1640 medium supplemented with 1% FCS and 2 mM L-glutamine and cultured overnight to reduce intracellular ATP levels. Next day, cells were washed and incubated with […] and compounds or DMSO and 2.5 mM fructose in glucose- and phenolred-free RPMI1640 medium for 40 min. The CellTiter-Glo® Luminescence Viability Assay from Promega was used to measure ATP levels. Luminescence was measured with a Victor Multilabel plate reader (Perkin Elmer). Blank values were subtracted from all readings and values were normalized to the DMSO control.

As to `Cc1ccc(CCNC(=O)c2cccc(N3C(=O)NC4CC3(C)Oc3c(OCc5ccc([N+](=O)[O-])cc5)cccc34)c2)cc1` (stereo not drawn) [Compound A03, 3-(2-Methyl-10-((4-nitrobenzyl)oxy)-4-oxo-5,6-dihydro-2H-2,6-methanobenzo[g][1,3,5]oxadiazocin-3(4H)-yl)-N-(4-methylphenethyl)benzamide], the IC50 is 300 to 1000 nM in assay [1], 300 to 1000 nM in assay [2], 4000 to 10000 nM in assay [3] and not above 5000 nM in assay [4].
`Cc1ccc(CCNC(=O)c2cccc(N3C(=O)NC4CC3(C)Oc3c(OCc5ccc(C(C)(C)C)cc5)cccc34)c2)cc1` (stereo not drawn) [Compound A06, 3-(10-((4-(tert-Butyl)benzyl)oxy)-2-methyl-4-oxo-5,6-dihydro-2H-2,6-methanobenzo[g][1,3,5]oxadiazocin-3(4H)-yl)-N-(4-methylphenethyl)benzamide]: the IC50 in assay [4] was not above 5000 nM.
Consider `Cc1ccc(CCNC(=O)c2cccc(N3C(=O)NC4CC3(C)Oc3c(OCc5ccccc5C)cccc34)c2)cc1` (stereo not drawn) [Compound A02, 3-(2-Methyl-10-((2-methylbenzyl)oxy)-4-oxo-5,6-dihydro-2H-2,6-methanobenzo[g][1,3,5]oxadiazocin-3(4H)-yl)-N-(4-methylphenethyl)benzamide], for which the IC50 in assay [1] was 1000 to 4000 nM; in assay [2] it was 1000 to 4000 nM; in assay [3] it was more than 25000 nM; in assay [4], not above 5000 nM.
As to `Cc1ccc(CCNC(=O)c2cccc(N3C(=O)NC4CC3(C)Oc3c(OCc5cccc(Cl)c5)cccc34)c2)cc1` (stereo not drawn) [Compound A04, 3-(10-((3-Chlorobenzyl)oxy)-2-methyl-4-oxo-5,6-dihydro-2H-2,6-methanobenzo[g][1,3,5]oxadiazocin-3(4H)-yl)-N-(4-methylphenethyl)benzamide], the IC50 is 300 to 1000 nM in assay [1], 300 to 1000 nM in assay [2], more than 25000 nM in assay [3] and not above 5000 nM in assay [4].
Take `CC12CC(NC(=O)N1c1cccc(C(=O)NCCCc3ccccc3)c1)c1cccc(OCc3ccccc3)c1O2` (stereo not drawn) [Compound A33, 3-(10-(benzyloxy)-2-methyl-4-oxo-5,6-dihydro-2H-2,6-methanobenzo[g][1,3,5]oxadiazocin-3(4H)-yl)-N-(3-phenylpropyl)benzamide]: the IC50 was 300 to 1000 nM in assay [1], more than 25000 nM in assay [5], 300 to 1000 nM in assay [2] and 1000 to 4000 nM in assay [3].
With `CC12CC(NC(=O)N1c1cccc(C(=O)NCCc3ccccc3)c1)c1cccc(OCc3ccccc3)c1O2` (stereo not drawn) [Compound A36, 3-(10-(benzyloxy)-2-methyl-4-oxo-5,6-dihydro-2H-2,6-methanobenzo[g][1,3,5]oxadiazocin-3(4H)-yl)-N-(phenethyl)benzamide], the IC50 in assay [1] is 300 to 1000 nM; in assay [5], more than 25000 nM; in assay [2] it was 300 to 1000 nM; in assay [3] it was 4000 to 10000 nM.

The record behind these values is patent US20210198269A1, “INHIBITORS OF GLUCOSE TRANSPORTERS (GLUTs)” (LEAD DISCOVERY CENTER GMBH, priority 2018, published 2021).
